Laboratory results from patent publication US20250340565A1, “CD73 INHIBITOR COMPOUNDS” (AdoRx Therapeutics Limited, priority 2022, published 2025).

Key:
[1] = target: human (h)CD73 (amino acids Trp27-Lys547) (Homo sapiens, UniProt P21589); assay: CD73 inhibition assay (Malachite Green phosphate detection); type: biochemical; settings: 250 pM hCD73, 12.5 μM AMP, 20 min pre-incubation, absorbance 620 nm
Description: Compound inhibition of human (h)CD73 (amino acids Trp27-Lys547, R&D Systems 5795-EN-500) enzymatic activity was tested via the Malachite Green Phosphate Detection Kit (R&D DY996). Experiments were performed in 20 μL Tris buffer (25 mM Tris pH 7.5, 5 mM MgCl2, 0.002% Tween20), with 250 pM of hCD73. Test compounds of interest were prepared in a threefold serial dilution in DMSO and added to the assay to give the appropriate final concentration, with the assay DMSO concentration being 1%. Compounds were pre-incubated for 20 minutes with hCD73 in a 384 well clear plate (Greiner 781101), followed by the addition of adenosine monophosphate (AMP) to 12.5 μM. The enzymatic reaction was carried out for 20 min at room temperature. 5 μL of Malachite kit reagent A was added to stop the reaction (contains 3M H2SO4) and after 10 min, 5 μL of Malachite kit reagent B was added (Malachite Green). After 30 min, absorbance at 620 nm was read on a BMG Pherastar FSX.
Data were normalised to measurements in the absence of competing compound (0% inhibition) and in the presence of 10 μM control compound (100% inhibition).

[2] = target: CD73 activity in U138-MG cells (Homo sapiens (Human), UniProt P21589); assay: U138-MG inhibition assay (inorganic phosphate from AMP, PiColorLock Gold); type: cell-based; settings: 100 μM AMP, 30 min pre-incubation, 1 hour at 37° C.
Sequence of CD73 activity in U138-MG cells (P21589 27-574): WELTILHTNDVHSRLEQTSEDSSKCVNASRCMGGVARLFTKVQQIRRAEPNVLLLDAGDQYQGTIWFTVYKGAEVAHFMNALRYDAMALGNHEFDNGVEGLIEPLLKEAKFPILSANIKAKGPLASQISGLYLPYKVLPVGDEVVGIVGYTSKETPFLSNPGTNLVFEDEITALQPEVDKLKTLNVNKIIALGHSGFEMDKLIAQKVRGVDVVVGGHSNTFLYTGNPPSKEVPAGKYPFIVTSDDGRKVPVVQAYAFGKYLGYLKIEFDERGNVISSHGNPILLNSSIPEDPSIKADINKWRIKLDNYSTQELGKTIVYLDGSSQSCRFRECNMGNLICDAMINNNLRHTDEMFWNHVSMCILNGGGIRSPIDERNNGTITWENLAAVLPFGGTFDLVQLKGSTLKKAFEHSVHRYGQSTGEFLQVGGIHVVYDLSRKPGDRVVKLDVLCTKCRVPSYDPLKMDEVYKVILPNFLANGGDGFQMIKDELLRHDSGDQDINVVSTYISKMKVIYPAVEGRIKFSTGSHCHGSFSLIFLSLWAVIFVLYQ
Description: U138-MG cells from ATCC are cultured in DMEM (Gibco 31966) with 10% FBS. Cells are seeded into 96-well culture plates (5,000 cell/well) in 100 μL of media for 24 hr. Cells are washed twice with 200 μL of assay buffer (20 mM HEPES, pH 7.4; 137 mM NaCl; 5.4 mM KCl; 1.3 mM CaCl2; 4.2 mM NaHCO3; 1 mg/mL glucose) to remove residual inorganic phosphate. CD73 inhibitor is added to each well in 100 μl volume and preincubated for 30 mins at 37° C. An equal volume of AMP substrate (Sigma A1572) is added to each well at a final concentration of 100 μM and incubated at 37° C. for 1 hour. Control wells containing cells but lacking added AMP, define the assay signal equivalent to 100% inhibition of CD73 activity. Supernatant is removed for measurement of inorganic phosphate using the PiColorLock Gold kit (Abcam, ab 270004).
The IC50 values of test compounds are determined as the inflection point of the sigmoidal concentration response curve.

CD73 in whole blood = CD73 in whole blood (Homo sapiens (Human), UniProt P21589); assay: Whole blood AMP Glo assay; type: cell-based; settings: whole blood of healthy volunteers, 10 μM AMP, 30 min pre-incubation, 15 min at 37° C., levamisole 1.5 mM
Sequence of CD73 in whole blood (P21589 27-574): as above
Description: Blood is drawn from healthy volunteers by venepuncture and anti-coagulated with Lithium Heparin (10 IU/mi). 150 μl of blood is added to U-bottom polypropylene 96-well assay plates pre-filled with 20 μl of compound dilutions prepared in RPMI also containing the Tissue Non-specific Alkaline Phosphatase inhibitor Levamisole (final assay concentration 1.5 mM). Control wells to define uninhibited CD73 contain DMSO in place of compound. Control wells to define complete stabilization of AMP attributable to CD73 contain LY3475070 (CAS: 2375815-63-5) at 30 μM final assay concentration.
Compounds are pre-incubated with whole blood at 37° C. for 30 minutes. Following this, AMP is added in a 30 μl volume for a final assay concentration of 10 μM, mixed, and the plates are incubated for 15 minutes at 37° C. Final DMSO concentration/well is 0.6% and final volume/well is 200 μL. After incubating with AMP, the plates are placed on ice and then centrifuged at 2000 g for 10 minutes at 4° C. Plasma is removed and then diluted 1:10 with pre-chilled HBSS (Ca2+& Mg2+free) and kept on ice.
The stabilized AMP concentration in diluted plasma is measured using AMP-Glo kit (Promega), in parallel with a standard curve of known AMP concentrations, with a final volume of 40 μl in white flat bottom half-well 96-well plates (Corning). Signal is measured by Luminescence. The IC50 values of test compounds are determined as the inflection point of the sigmoidal concentration response curve.

CC1(C)CN(c2ncnc3sc(-c4c[nH]c(=O)[nH]c4=O)cc23)C1 [Example 1.2, 5-[4-(3,3-Dimethylazetidin-1-yl)thieno[2,3-d]pyrimidin-6-yl]-1H-pyrimidine-2,4-dione]
IC50 [1]: 428 nM
IC50 [2]: 1010 nM

O=c1[nH]cc(-c2cc3c(N4CCC(OCc5ccccc5)C4)ncnc3s2)c(=O)[nH]1 (centres unmarked) [Example 4.2, 5-[4-(3-Benzyloxypyrrolidin-1-yl)thieno[2,3-d]pyrimidin-6-yl]-1H-pyrimidine-2,4-dione]
IC50 [1]: 197 nM
IC50 [2]: 3140 nM

CC1(C)CN(c2ncnc3nc(-c4c[nH]c(=O)[nH]c4=O)sc23)CC1(F)F [Example 6.1, 5-[7-(3,3-difluoro-4,4-dimethyl-pyrrolidin-1-yl)thiazolo[4,5-d]pyrimidin-2-yl]-1H-pyrimidine-2,4-dione]
IC50 [1]: 94 nM
IC50 [2]: 66 nM

O=c1[nH]cc(-c2cc3c(N4CCC(OCCN5CCCCC5)C4)nccc3s2)c(=O)[nH]1 (centres unmarked) [Example 9, 5-[4-[3-[2-(1-Piperidyl)ethoxy]pyrrolidin-1-yl]thieno[3,2-c]pyridin-2-yl]-1H-pyrimidine-2,4-dione]
IC50 [1]: 283 nM

O=c1[nH]cc(-n2cc3c(N4C[C@@H]5COC[C@H]5C4)ncnc3n2)c(=O)[nH]1 [Example 13.10, 5-[4-[(3aR,6aR)-1,3,3a,4,6,6a-Hexahydrofuro[3,4-c]pyrrol-5-yl]pyrazolo[3,4-d]pyrimidin-2-yl]-5H-pyrimidine-2,4-dione]
IC50 [2]: 2500 nM

CC1(C)CN(c2ccnc3sc(-c4c[nH]c(=O)[nH]c4=O)cc23)CC1(F)F [Example 14.1, 5-[4-(3,3-Difluoro-4,4-dimethyl-pyrrolidin-1-yl)thieno[2,3-b]pyridin-2-yl]-1H-pyrimidine-2,4-dione]
IC50 [1]: 256 nM
IC50 [2]: 1320 nM

O=c1[nH]cc(-c2cc3c(NCc4ccc(Cl)cc4)ncnc3o2)c(=O)[nH]1 [Example 19.2, 5-[4-[(4-Chlorophenyl)methylamino]furo[2,3-d]pyrimidin-6-yl]-1H-pyrimidine-2,4-dione]
IC50 [1]: 9730 nM

CC(C)NC(=O)OCC(F)(F)CNc1ncnc2oc(-c3c[nH]c(=O)[nH]c3=O)cc12 [Example 20, [3-[[6-(2,4-Dioxo-1H-pyrimidin-5-yl)furo[2,3-d]pyrimidin-4-yl]amino]-2,2-difluoro-propyl]N-isopropylcarbamate]
IC50 [1]: 834 nM
IC50 [2]: 744 nM

CC(C)NC(=O)OC1CN(c2ncnc3oc(-c4c[nH]c(=O)[nH]c4=O)cc23)CC1(F)F (centres unmarked) [Example 22.2, [1-[6-(2,4-Dioxo-1H-pyrimidin-5-yl)furo[2,3-d]pyrimidin-4-yl]-4,4-difluoro-pyrrolidin-3-yl]N-isopropylcarbamate]
IC50 [1]: 170 nM
IC50 [2]: 54.9 nM

O=c1[nH]cc(-c2cc3c(N4CC(F)(F)C5(CC5)C4)nccn3n2)c(=O)[nH]1 [Example 25.2, 5-[4-(7,7-Difluoro-5-azaspiro[2.4]heptan-5-yl)pyrazolo[1,5-a]pyrazin-2-yl]-1H-pyrimidine-2,4-dione]
IC50 [1]: 83.7 nM
IC50 [2]: 58.8 nM

COC1CN(c2nccn3nc(-c4c[nH]c(=O)[nH]c4=O)cc23)CC1(F)F (centres unmarked) [Example 25.3, 5-[4-(3,3-difluoro-4-methoxy-pyrrolidin-1-yl)pyrazolo[1,5-a]pyrazin-2-yl]-1H-pyrimidine-2,4-dione]
IC50 [1]: 54.7 nM
IC50 [2]: 91 nM

O=c1[nH]cc(-c2cc3c(N4CCC5(COC5)C4)nccn3n2)c(=O)[nH]1 [Example 25.4, 5-[4-(2-oxa-7-azaspiro[3.4]octan-7-yl)pyrazolo[1,5-a]pyrazin-2-yl]-1H-pyrimidine-2,4-dione]
IC50 [1]: 141 nM
IC50 [2]: 115 nM

O=c1[nH]cc(-c2cc3c(N4CC(O)C(F)(F)C4)nccn3n2)c(=O)[nH]1 (centres unmarked) [Example 25.5, 5-[4-(3,3-difluoro-4-hydroxy-pyrrolidin-1-yl)pyrazolo[1,5-a]pyrazin-2-yl]-1H-pyrimidine-2,4-dione]
IC50 [1]: 71.9 nM
IC50 [2]: 170 nM

CN1CCOC(COC2CN(c3nccn4nc(-c5c[nH]c(=O)[nH]c5=O)cc34)CC2(F)F)C1 (centres unmarked) [Example 25.6, 5-[4-[3,3-difluoro-4-[(4-methylmorpholin-2-yl)methoxy]pyrrolidin-1-yl]pyrazolo[1,5-a]pyrazin-2-yl]-1H-pyrimidine-2,4-dione]
IC50 [1]: 99 nM
IC50 [2]: 46 nM

O=c1[nH]cc(-c2cc3c(N4CC(OCCN5CCOCC5)C(F)(F)C4)nccn3n2)c(=O)[nH]1 (centres unmarked) [Example 25.7, 5-[4-[3,3-difluoro-4-(2-morpholinoethoxy)pyrrolidin-1-yl]pyrazolo[1,5-a]pyrazin-2-yl]-1H-pyrimidine-2,4-dione]
IC50 [1]: 132 nM
IC50 [2]: 65 nM

CC1(C)CN(c2ncc(F)n3nc(-c4c[nH]c(=O)[nH]c4=O)cc23)CC1(F)F [Example 25.10, 5-[4-(3,3-difluoro-4,4-dimethyl-pyrrolidin-1-yl)-7-fluoro-pyrazolo[1,5-a]pyrazin-2-yl]-1H-pyrimidine-2,4-dione]
IC50 (CD73 in whole blood): 56 nM
IC50 [2]: 5 nM

Cc1cnc(N2CC(C)(C)C(F)(F)C2)c2cc(-c3c[nH]c(=O)[nH]c3=O)nn12 [Example 25.11, 5-[4-(3,3-difluoro-4,4-dimethyl-pyrrolidin-1-yl)-7-methyl-pyrazolo[1,5-a]pyrazin-2-yl]-1H-pyrimidine-2,4-dione]
IC50 (CD73 in whole blood): 200 nM
IC50 [2]: 23 nM

CC1(C)CN(c2ncc(I)n3nc(-c4c[nH]c(=O)[nH]c4=O)cc23)CC1(F)F [Example 25.12, 5-[4-(3,3-difluoro-4,4-dimethyl-pyrrolidin-1-yl)-7-iodo-pyrazolo[1,5-a]pyrazin-2-yl]-1H-pyrimidine-2,4-dione]
IC50 [2]: 38 nM

O=c1[nH]cc(-c2cc3c(N4CC(O)C(F)(F)C4)ncc(Cl)n3n2)c(=O)[nH]1 (centres unmarked) [Example 25.13, 5-[7-Chloro-4-(3,3-difluoro-4-hydroxy-pyrrolidin-1-yl)pyrazolo[1,5-a]pyrazin-2-yl]-1H-pyrimidine-2,4-dione]
IC50 (CD73 in whole blood): 5 nM
IC50 [2]: 12 nM

Cc1nc(N2CC(C)(C)C(F)(F)C2)c2cc(-c3c[nH]c(=O)[nH]c3=O)nn2c1Cl [Example 25.15, 5-[7-Chloro-4-(3,3-difluoro-4,4-dimethyl-pyrrolidin-1-yl)-6-methyl-pyrazolo[1,5-a]pyrazin-2-yl]-1H-pyrimidine-2,4-dione]
IC50 [2]: 18 nM

COC1CN(c2ncc(F)c3nn(-c4c[nH]c(=O)[nH]c4=O)cc23)CC1(F)F (centres unmarked) [Example 26.2, 5-[4-(3,3-difluoro-4-methoxy-pyrrolidin-1-yl)-7-fluoro-pyrazolo[4,3-c]pyridin-2-yl]-1H-pyrimidine-2,4-dione]
IC50 [1]: 43.3 nM
IC50 [2]: 12 nM

O=c1[nH]cc(-n2cc3c(N4CC(O)C(F)(F)C4)ncc(F)c3n2)c(=O)[nH]1 (centres unmarked) [Example 26.3, 5-[4-(3,3-difluoro-4-hydroxy-pyrrolidin-1-yl)-7-fluoro-pyrazolo[4,3-c]pyridin-2-yl]-1H-pyrimidine-2,4-dione]
IC50 [1]: 35.1 nM
IC50 [2]: 16 nM

CN1CCOC(COC2CN(c3ncc(F)c4nn(-c5c[nH]c(=O)[nH]c5=O)cc34)CC2(F)F)C1 (centres unmarked) [Example 26.6, 5-[4-[3,3-difluoro-4-[(4-methylmorpholin-2-yl)methoxy]pyrrolidin-1-yl]-7-fluoro-pyrazolo[4,3-c]pyridin-2-yl]-1H-pyrimidine-2,4-dione]
IC50 [1]: 59 nM
IC50 [2]: 11 nM
